System: Human sebocytes
Test: Test of sebum secretion-inhibiting effect using human sebocytes (linoleic acid-induced, Bodipy lipid staining)
Type: cell-based
Experimental: Human sebocytes were cultured for 24 hours in an environment of 37° C. and 5% CO2 with Sebocyte Complete Culture Media (Celprogen), and then treated with 100 μM linoleic acid and 0.1, 0.5, 1, and 2 ppm Melasolv and cultured for another 48 hours.
Thereafter, the cells were fixed with formaldehyde, and lipids were stained with 2 μM Bodipy. Fluorescence intensity was measured at a specific wavelength (Excitation/Emission: 485/528 nm) using a Fluorescent Plate Reader.

| SMILES | amount of sebum production (concentration dependence) (0.1, 0.5, 1, and 2 ppm Melasolv together with 100 μM linoleic acid, 48 hours (FIG. 1)) | sebum production seen in fluorescence photograph (FIG. 2) (2 ppm Melasolv, naked-eye observation of Bodipy fluorescence photograph) | inhibition at 2 ppm (Homo sapiens, 2 ppm Melasolv with 100 μM linoleic acid, 48 hours, based on the amount of sebum production induced by linoleic acid, Bodipy fluorescence (FIG. 1)) [%] | sebum production, percentage compared to the untreated control group (100%) (100 μM linoleic acid alone (inducer), 48 hours, Bodipy fluorescence) [%] |
| --- | --- | --- | --- | --- |
| COc1cc(/C=C/C(=O)Oc2cc(C)ccc2C(C)C)cc(OC)c1OC [Melasolv, (5-methyl-2-propan-2-ylphenyl) (E)-3-(3,4,5-trimethoxyphenyl)prop-2-enoate] | decreased in proportion to the concentration | most inhibited | ~60.3 |  |
| CCCCC/C=C\C/C=C\CCCCCCCC(=O)O [linoleic acid, reference compound] |  |  |  | 142 |
